Results taken from patent publication US10857201B2, “NNIF and nNIF-related peptides and related methods” (UNIVERSITY OF UTAH RESEARCH FOUNDATION, priority 2016, dated 2020).
Entries after “also recorded” stand apart in the source; their conditions may differ.

Tests used:
[1] = test system: PMN phagocytosis; assay: Phagocytosis of fluorescently labeled E. coli bioparticles; type: cell-based, human; conditions: 4 hour incubation, peptides 1 nM
Procedure: FIG. 6C is a graph depicting phagocytosis of fluorescently-labeled E. coli bioparticles that were measured by microscopy after a 4 hour incubation. Treatment with cytochalasin B and D served as a control for inhibition of phagocytosis. Student's t test, *P<0.05.
PMNs were isolated from blood of healthy adult donors and resuspended in M-199 at a concentration of 2×10^6 cells/mL. Leukocytes were pre-incubated for 60 minutes under standard conditions with cytochalasin D and B (10 μM), nNIF (1 nM), CRISPP (1 nM), or CRISPP-SCR (1 nM). Following pre-incubation, PMNs were incubated with 6×10^6 E. coli bioparticles (MOLECULAR PROBES®) on a rotator for 4 hours at 37° C. in 5% […] air. The PMNs were then washed and resuspended in the starting volume of M-199 before being spun down onto glass coverslips and fixed with 2% p-FA for 10 minutes and permeabilized with 0.1% Triton-X-100 for 10 minutes. Leukocytes were stained with WGA 555 (INVITROGEN™) and TO-PRO®-3 (MOLECULAR PROBES®), and randomly selected high-power visual field images were captured using confocal microscopy. IMAGEJ™ software (NIH) was used to determine the percentage of PMNs that were positive for fluorescently labeled E. coli bioparticles detected at 488 nm.

[2] = molecular target: T1, neutrophil elastase (NE) (Homo sapiens, UniProt P08246); assay: Neutrophil elastase activity assay; type: biochemical; conditions: in vitro; (MeOSuc)-AAPV-(pNA) 160 μM, 3 hours, 37° C., and additional assays
T1 construct: purchased SIGMA-ALDRICH
T1 sequence (P08246 30-267): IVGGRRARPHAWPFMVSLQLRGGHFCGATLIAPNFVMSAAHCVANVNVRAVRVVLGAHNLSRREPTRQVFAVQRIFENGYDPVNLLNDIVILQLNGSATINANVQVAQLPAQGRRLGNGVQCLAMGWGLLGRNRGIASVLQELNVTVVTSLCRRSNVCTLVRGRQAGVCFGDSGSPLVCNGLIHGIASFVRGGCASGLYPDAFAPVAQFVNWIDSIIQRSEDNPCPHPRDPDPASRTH
Procedure: FIG. 12B depicts NE enzyme activity that was examined by cleavage of the synthetic substrate (MeOSuc)-AAPV-(pNA) to (MeOSuc)-AAPV and (pNA) as products detected by liquid chromatography and chromatogram peak identification by mass spectroscopy. (MeOSuc)-AAPV-(pNA) (160 μm) was incubated with NE (2 mU), sivelestat (160 μm), or NE and sivelestat (left panel) or with NE (2 mU), nNIF ([…]), or NE and nNIF (right panel) for 3 hours at 37° C. Chromatograms are offset on the X and Y axes for ease of comparison. In the presence of NE alone, the (MeOSvc)-AAPV-(pNA) peak was almost completely eliminated and (MeOSvc)-AAPV and (pNA) peaks were generated. […] In contrast, it was not inhibited by nNIF.
Synthetic fluorogenic substrate of NE, (MeOSuc)-AAPV-(pNA) (160 μM), was incubated with bioactive NE (500 nM)±the NE inhibitor, sivelestat (160 μM) or nNIF (50 nM), for 3 hours at 37° C. The reactions were quenched with 5% glacial acetic acid and centrifuged at 14,000 rpm for 5 minutes. Chromatograms were obtained using an AGILENT™ 1100 Series HPLC and a PHENOMENEX® 5 μm C18 LUNA® column (100 Å, 4.6×150 mm) over a 30 minute 10% to 90% B gradient (Buffer A 0.1% TFA in H2O, Buffer B 0.1% TFA in ACN). Mass spectra were obtained for secondary validation of the reaction products using an API® 3500 triple quadrupole mass spectrometer. Chromatograms were offset on both the X and Y axes (by 0.5 minutes and 0.1 A214, respectively) for greater visibility.

[3] = test system: C57BL/6 mice subjected to CLP; assay: Mouse model of polymicrobial sepsis, cecal ligation and puncture (CLP); conditions: 10 mg/kg i.p. 1 hour before and 6 hours after, versus nNIF-SCR
Procedure: FIG. 9B is a graph depicting C57BL/6 mice that were subjected to cecal ligation and puncture (CLP). nNIF or nNIF-SCR (10 mg/kg i.p.) was given 1 hour before and 6 hours after surgery (n≥7 in each group). Mice subjected to sham surgery were studied in parallel (n=3 in each group). Clinical illness severity scores (see Araujo C V, et al., Shock. 2016; 45 (4):393-403) were determined at 24 hours.
C57BL/6 mice were anaesthetized with ketamine/xylazine (100 mg/kg and 10 mg/kg, i.p; respectively), and cecal ligation and puncture (CLP) was performed as previously described (see Araujo C V, et al., Shock. 2016; 45 (4):393-403). nNIF (10 mg/kg) or nNIF-SCR (10 mg/kg) i.p. was given 1 hour prior to and 6 hours after CLP surgery. The animals received subcutaneous sterile isotonic saline (1 mL) for fluid resuscitation immediately after the surgery. Sham-operated mice were subjected to identical procedures except that CLP was not done. 24 hours after CLP, all animals were scored for clinical illness severity as previously described (see Araujo C V, et al., Shock. 2016; 45 (4):393-403). In this assessment, higher scores reflect increased illness severity.

[4] = test system: platelets; assay: P-selectin surface translocation on thrombin-activated platelets (flow cytometry); type: cell-based, human; conditions: thrombin 0.1 U/mL; peptide 1 nM
Procedure: FIG. 6E is a graph depicting surface translocation of P-selectin on platelets activated by thrombin (0.1 U/mL) that was measured by flow cytometry. The dashed line indicates surface P-selectin on unstimulated platelets.
(§1) P-selectin translocation and surface display by activated platelets (see van Velzen J F, et al., Thromb Res. 2012; 130 (1):92-8) and formation of platelet-neutrophil aggregates (see Evangelista V, et al., Blood. 1996; 88 (11):4183-94) were measured as described.

[5] = test system: activated human platelets and PMNs; assay: Platelet-neutrophil aggregate formation; type: cell-based; conditions: thrombin 0.1 U/mL, LPS 100 ng/mL; peptide 1 nM
Procedure: FIG. 6F is a graph depicting formation of platelet-neutrophil aggregates that was measured after mixing of platelets activated with thrombin (0.1 U/mL) and neutrophils activated with LPS (100 ng/mL). The dashed line indicates control aggregate formation in response to LPS stimulation of the PMNs alone. *P<0.05 for CRISPP and CRISPP-SCR compared to control. FIGS. 6A-6F are a series of graphs depicting isolated adult neutrophils or platelets that were preincubated with buffer or with CRISPP, nNIF, or CRISPP-SCR (1 nM, 1 hour for each) followed by measurement of functional responses. A minimum of three separate assays were done for each response. Error bars=SEM. Tukey's post hoc testing was applied in FIGS. 6B, 6D, 6E, and 6F.
as §1

Substance | phagocytosis [1] | NE activity (substrate cleavage) [2] | clinical illness scores at 24 hours [3] | surface translocation of P-selectin by thrombin-stimulated platelets [4] | formation of heterotypic aggregates by activated platelets and PMNs [5]
KFNKPFVFLMIEQNTKSPLFMGKVVNPTQ (listed as Homo sapiens) [nNIF] | did not inhibit | neither nNIF nor CRISPP inhibited NE activity; also recorded: not inhibited | lower | – | –
M_IPPEVKFNKPFVFLMIDQNTKVPLFMGK [CRISPP, consensus peptide based on factors present in the blood of patients with cancer] | did not inhibit | neither nNIF nor CRISPP inhibited NE activity | – | does not inhibit | does not inhibit
